Measured values from ChEMBL document CHEMBL1153521, “A novel decoy that interrupts G93A-superoxide dismutase gain of interaction with malate dehydrogenase improves survival in an amyotrophic lateral sclerosis cell model” (J Med Chem, 2009).
Active and inactive are the calls of the source. The rule behind the calls is not given here. Peptide text beside a SMILES is read from it. * marks the point of attachment. X1 = CN(C)c1ccc2c(-c3ccc(C(=O)*)cc3C(=O)O)c3ccc(=[N+](C)C)cc-3oc2c1

Legend:
NSC-34 [1] = assay: Inhibition of interaction of human SOD1 G93A mutant with YFP-tagged MDH1 transfected in mouse NSC-34 cells after 48 hrs by pull-down immunoprecipitation analysis; assay type: cell-based
[2] = Drug penetration in mouse NSC-34 cells at 1 uM after 24 hrs by fluorescence confocal microscopy; assay type: ADME, cell-based; conditions: nsc-34, 24 h
[3] = Protective effect against rotenone-induced toxicity in mouse NSC-34 cells expressing GFP-tagged human SOD1 G93A mutant assessed as increase in survival at 1 uM after 48 hrs by methylene blue assay relative to rotenone-treated cells expressing GFP-tagged wild type human SOD1; assay type: functional
[4] = Increase in ATP level in mouse NSC-34 cells expressing human SOD1 G93A mutant at 1 uM after 48 hrs relative to cells expressing wild type human SOD1; assay type: functional
[5] = Protective effect against 2 mg/ml glucose-induced toxicity in mouse NSC-34 cells expressing GFP-tagged human SOD1 G93A mutant assessed as increase in survival at 1 uM after 48 hrs by methylene blue assay relative to 2 mg/ml glucose-treated cells expressing GFP-tagged wild type human SOD1; assay type: functional
NSC-34 [6] = assay: Inhibition of interaction of CFP-tagged human SOD1 G93A mutant with YFP-tagged MDH1 transfected in mouse NSC-34 cells by FRET assay; assay type: cell-based; set-up: scale not given: the % may be the effect or the level left

Row | Compound | inhibition (NSC-34 [1]) | Drug uptake [2] [%] | Activity [3] [%] | Activity [4] [%] | Activity [5] [%] | Activity (NSC-34 [6])
1 | CC(C)C[C@H](NC(=O)[C@H](CC(N)=O)NC(=O)c1ccc(-c2c3ccc(=[N+](C)C)cc-3oc3cc(N(C)C)ccc23)c(C(=O)O)c1)C(=O)N[C@@H](CO)C(=O)O | inactive | 100 |  |  |  | 
2 | CC[C@H](C)[C@H](NC(=O)[C@H](Cc1ccccc1)NC(=O)[C@H](CCC(=O)O)NC(=O)CNC(=O)[C@H](CCCCN)NC(=O)[C@H](CC(C)C)NC(=O)[C@H](Cc1c[nH]c2ccccc12)NC(=O)[C@H](CO)NC(=O)c1ccc(-c2c3ccc(=[N+](C)C)cc-3oc3cc(N(C)C)ccc23)c(C(=O)O)c1)C(=O)N[C@H](C(=O)N[C@H](C(=O)N[C@H](C(=O)N[C@@H](CCC(N)=O)C(=O)N[C@@H](CCC(N)=O)C(=O)N[C@@H](CCCNC(=N)N)C(=O)NCC(=O)N[C@@H](C)C(=O)N[C@@H](C)C(=O)N[C@H](C(=O)N[C@H](C(=O)N[C@@H](CCCCN)C(=O)N[C@@H](C)C(=O)N[C@@H](CCCNC(=N)N)C(=O)N[C@@H](CCCCN)C(=O)O)[C@@H](C)CC)C(C)C)C(C)C)[C@@H](C)O)[C@@H](C)O (X1-SWLKGEFITTVQQRGAAVIKARK-OH) | Active | 100 | 98 | 90 | 97 | 
3 | H-GQIAYSLLYSIGNGS-OH |  |  |  |  |  | inactive
4 | H-SWLKGEFITTVQQRGAAVIKARK-OH |  |  |  |  |  | 79%
